Values quoted from earlier work, collected in paper PMC12154284, “FYCO1 Peptide Analogs: Design and Characterization of Autophagy Inhibitors as Co-Adjuvants in Taxane Chemotherapy of Prostate Cancer” (International Journal of Molecular Sciences, 2025).

Target: LC3B
Settings: eicosapeptide, ref [30]; cited from earlier work
Description: This small protein sequence consists of four conserved residues that can be succinctly represented as a sequence of “X0–X1–X2–X3”, where X0 represents an aromatic residue (Trp/Phe/Tyr), X1 and X2 can denote any amino acids (often acidic or hydrophobic residues), and X3 signifies a large hydrophobic residue such as Leu, Val, or Ile. Consequently, the LIR domain can be considered a promising starting poi ... || To measure the dissociation constants (Kd) of the peptides on human recombinant His-tagged LC3B protein, MST experiments were carried out on a Monolith NT.115^Pico instrument (see the Materials and Methods section for details). […] The electrostatic interactions between the new peptides and LC3B’s positively charged surface—defined by the residues K49, K51, R69, and R70—correlated with low predicted ΔG* values, explaining their improved ...

In the case of RDDAV2DIITDEEαCQIQEW [Comb1], the Kd is listed as 120 nM.
